# In patent publication US4217274A, “Methoxyethoxymethyl esters of penicillins” (Bristol-Myers Company, priority 1978, dated 1980):
# Where two headings read alike, the source gives them in different places.
# Experiments:
# Str. pneumoniae = experiment: MIC, antibiotic dilution technique (agar); assay type: cell-based; settings: Streptococcus pneumoniae
# From the text: (§1) Bacteria. The organisms, preponderantly of recent clinical origin, were obtained from numerous sources of broad geographical distribution. Obligate anaerobes were maintained in Egg Meat Medium (Difco); Mycobacterium was stored on Lowenstein Medium (Jensen Modification; Difco). The techniques of storing all other organisms have been described previously [Leitner et al., BL-S640, A Cephalosporin with a Broad Spectrum of Antibacterial Activity: Properties in vitro, Antimicrob. Agents Chemother., 7, 298-305 (1975)].
# (§2) Antibiotic spectrum. The growth-inhibitory activity of the compounds was determined by the antibiotic dilution technique. Procedures were as follows:
# (§3) Aerobic organisms (excluding Mycobacterium). Except for Haemophilus and Neisseria, the assay was performed in Mueller-Hinton Medium (Difco). For fastidious organisms, i.e., Streptococcus, Listeria, Pasteurella, Bordetella and Vibrio, the medium was supplemented with 4% defibrinated sheep blood. The antibiotic susceptibility of Haemophilus and Neisseria was determined in GC Medium Base (BBL) supplemented with 1% Hemoglobin (BBL) and 1% Isovitalex (BBL).
# (§4) Overnight broth cultures of an exponentially growing culture (Neisseria) served as the source of inoculum. A volume of approximately 0.003 ml. of the undiluted or diluted culture was applied to the surface of the antibiotic-containing agar plates with the inoculator of Steers et al., An Inocula Replicating Apparatus for Routine Testing of Bacterial Susceptibility to Antibiotics, Antibiot. Chemother., 9, 307-311, (1959). Cultures of Neisseria, Streptococcus pneumoniae, S. viridans and S. pyogenes were used without dilution; those of all other organisms were diluted 100-fold. The inoculum contained about 10^3 viable cells for Neisseria, 10^5 for S. pneumoniae and S. pyogenes, 10^6 for S. viridans and 10^4 for all other species.
# Ent. cloacae = experiment: MIC, antibiotic dilution technique (agar); assay type: cell-based; settings: Enterobacter cloacae
# From the text: as §1, §2, §3, §4
# S. aureus Pen-Res. = experiment: MIC, antibiotic dilution technique (agar); assay type: cell-based; settings: Staphylococcus aureus
# From the text: as §1, §2, §3, §4
# E. Coli [1] = experiment: MIC, antibiotic dilution technique (agar); assay type: cell-based; settings: Escherichia coli
# From the text: as §1, §2, §3, §4
# Pr. morganii = experiment: MIC, antibiotic dilution technique (agar); assay type: cell-based; settings: Morganella morganii
# From the text: as §1, §2, §3, §4
# S. aureus Meth-Res. = experiment: MIC, antibiotic dilution technique (agar); assay type: cell-based; settings: Staphylococcus aureus
# From the text: as §1, §2, §3, §4
# Pr. vulgaris = experiment: MIC, antibiotic dilution technique (agar); assay type: cell-based; settings: Proteus vulgaris
# From the text: as §1, §2, §3, §4
# Pr. rettgeri = experiment: MIC, antibiotic dilution technique (agar); assay type: cell-based; settings: Providencia rettgeri
# From the text: as §1, §2, §3, §4
# S. aureus = experiment: MIC, antibiotic dilution technique (agar); assay type: cell-based; settings: Staphylococcus aureus
# From the text: as §1, §2, §3, §4
# Ps. aeruginosa = experiment: MIC, antibiotic dilution technique (agar); assay type: cell-based; settings: Pseudomonas aeruginosa
# From the text: as §1, §2, §3, §4
# K. pneumoniae [2] = experiment: MIC, antibiotic dilution technique (agar); assay type: cell-based; settings: Klebsiella pneumoniae
# From the text: as §1, §2, §3, §4
# Pr. mirabilis = experiment: MIC, antibiotic dilution technique (agar); assay type: cell-based; settings: Proteus mirabilis
# From the text: as §1, §2, §3, §4
# Ser. marcescens = experiment: MIC, antibiotic dilution technique (agar); assay type: cell-based; settings: Serratia marcescens
# From the text: as §1, §2, §3, §4
# Str. faecalis = experiment: MIC, antibiotic dilution technique (agar); assay type: cell-based; settings: Enterococcus faecalis
# From the text: as §1, §2, §3, §4
# [3] = Mouse blood levels after oral administration (disc diffusion bioassay, Bacillus subtilis); settings: in vivo, 100 mg/kg
# Str. pyogenes = experiment: MIC, antibiotic dilution technique (agar); assay type: cell-based, S. pyogenes; settings: Streptococcus pyogenes
# From the text: as §1, §2, §3, §4
# S. marcescens = experiment: MIC, antibiotic dilution technique (agar), Table 4; assay type: cell-based; settings: Serratia marcescens
# From the text: as §1, §2, §3, §4
# E. cloacae = experiment: MIC, antibiotic dilution technique (agar), Table 4; assay type: cell-based; settings: Enterobacter cloacae; Table 4, 2 strains, geometric mean where applicable
# From the text: as §1, §2, §3, §4
# [4] = system: S. aureus (lacking penase); experiment: MIC, antibiotic dilution technique (agar), Table 4; assay type: cell-based; settings: Staphylococcus aureus; Table 4, 6 strains, geometric mean where applicable
# From the text: as §1, §2, §3, §4
# S. viridans = experiment: MIC, antibiotic dilution technique (agar), Table 4; assay type: cell-based; settings: Streptococcus viridans
# From the text: as §1, §2, §3, §4
# P. rettgeri = experiment: MIC, antibiotic dilution technique (agar), Table 4; assay type: cell-based; settings: Providencia rettgeri
# From the text: as §1, §2, §3, §4
# E. Coli [5] = experiment: MIC, antibiotic dilution technique (agar), Table 4; assay type: cell-based; settings: Escherichia coli
# From the text: as §1, §2, §3, §4
# S. pneumoniae = experiment: MIC, antibiotic dilution technique (agar), Table 4; assay type: cell-based; settings: Streptococcus pneumoniae; Table 4, 7 strains, geometric mean where applicable
# From the text: as §1, §2, §3, §4
# [6] = system: Streptococcus sp. (β-hemolytic); experiment: MIC, antibiotic dilution technique (agar), Table 4; assay type: cell-based; settings: Table 4, 6 strains, geometric mean where applicable
# From the text: as §1, §2, §3, §4
# K. pneumoniae [7] = experiment: MIC, antibiotic dilution technique (agar), Table 4; assay type: cell-based; settings: Klebsiella pneumoniae
# From the text: as §1, §2, §3, §4
# P. mirabilis = experiment: MIC, antibiotic dilution technique (agar), Table 4; assay type: cell-based; settings: Proteus mirabilis
# From the text: as §1, §2, §3, §4
# S. faecalis = experiment: MIC, antibiotic dilution technique (agar), Table 4; assay type: cell-based; settings: Enterococcus faecalis; Table 4, 6 strains, geometric mean where applicable
# From the text: as §1, §2, §3, §4
# S. pyogenes = experiment: MIC, antibiotic dilution technique (agar), Table 4; assay type: cell-based; settings: Streptococcus pyogenes; Table 4, 6 strains, geometric mean where applicable
# From the text: as §1, §2, §3, §4
# p. vulgaris = experiment: MIC, antibiotic dilution technique (agar), Table 4; assay type: cell-based; settings: Proteus vulgaris; Table 4, 2 strains, geometric mean where applicable
# From the text: as §1, §2, §3, §4
smiles,measurement,setting,value
"CC1(C)S[C@@H]2[C@H](NC(=O)[C@H](N)c3ccc(O)cc3)C(=O)N2[C@H]1C(=O)O [Amoxicillin, amoxicillin]",MIC,"Str. pneumoniae; Table 2, Str. pneumoniae",0.004 µg/mL
same,MIC,Ent. cloacae,125 µg/mL
same,MIC,"Ent. cloacae; Table 2, Ent. cloacae, first line, read-out: MIC",63 µg/mL
same,MIC,S. aureus Pen-Res.,> 125 µg/mL
same,MIC,"E. Coli [1]; Table 2, E. coli, first line",0.5 µg/mL
same,MIC,"E. Coli [1]; Table 2, E. coli, second line",> 125 µg/mL
same,MIC,Pr. morganii,125 µg/mL
same,MIC,"S. aureus Meth-Res.; Table 2, S. aureus Meth-Res.",32 µg/mL
same,MIC,"Pr. vulgaris; Table 2, Pr. vulgaris",0.06 µg/mL
same,MIC,"Pr. rettgeri; Table 2, Pr. rettgeri",16 µg/mL
same,MIC,"S. aureus; Table 2, S. aureus",0.03 µg/mL
same,MIC,"S. aureus; Table 2, S. aureus + 50% serum",0.06 µg/mL
same,MIC,"Ps. aeruginosa; Table 2, Ps. aeruginosa, first line",125 µg/mL
same,MIC,"Ps. aeruginosa; Table 2, Ps. aeruginosa, second line",> 125 µg/mL
same,MIC,"K. pneumoniae [2]; Table 2, K. pneumoniae, first line",125 µg/mL
same,MIC,"K. pneumoniae [2]; Table 2, K. pneumoniae, second line",> 125 µg/mL
same,MIC,"Pr. mirabilis; Table 2, Pr. mirabilis",0.06 µg/mL
same,MIC,"Ser. marcescens; Table 2, Ser. marcescens",32 µg/mL
same,MIC,"Str. faecalis; Table 2, Str. faecalis",0.06 µg/mL
same,concentration at 0.25 h,[3],9500 ng/mL
same,concentration at 0.5 h,[3],16900 ng/mL
same,concentration at 1 h,[3],14200 ng/mL
same,concentration at 1.5 h,[3],8700 ng/mL
same,concentration at 2 h,[3],6300 ng/mL
same,concentration at 3 h,[3],3100 ng/mL
same,MIC,"Str. pyogenes; Table 2, Str. pyogenes",0.004 µg/mL
"CC1(C)S[C@@H]2[C@H](NC(=O)[C@H](N)c3ccccc3)C(=O)N2[C@H]1C(=O)O [Ampicillin, ampicillin]",MIC,"Str. pneumoniae; Table 1, Str. pneumoniae",0.004 µg/mL
same,MIC,"Ent. cloacae; Table 1, Ent. cloacae, first line, read-out: MIC",32 µg/mL
same,MIC,"Ent. cloacae; Table 1, Ent. cloacae, second line, read-out: MIC",32 µg/mL
same,MIC,S. aureus Pen-Res.,125 µg/mL
same,MIC,"E. Coli [1]; Table 1, E. Coli, first line",1 µg/mL
same,MIC,"E. Coli [1]; Table 1, E. Coli, second line",63 µg/mL
same,MIC,Pr. morganii,125 µg/mL
same,MIC,"S. aureus Meth-Res.; Table 1, S. aureus Meth-Res.",16 µg/mL
same,MIC,"Pr. vulgaris; Table 1, Pr. vulgaris",0.13 µg/mL
same,MIC,"Pr. rettgeri; Table 1, Pr. rettgeri",8 µg/mL
same,MIC,"S. aureus; Table 1, S. aureus",0.03 µg/mL
same,MIC,"S. aureus; Table 1, S. aureus + 50% serum",0.06 µg/mL
same,MIC,"Ps. aeruginosa; Table 1, Ps. aeruginosa, first line, read-out: MIC",63 µg/mL
same,MIC,"Ps. aeruginosa; Table 1, Ps. aeruginosa, second line",> 125 µg/mL
same,MIC,"K. pneumoniae [2]; Table 1, K. pneumoniae, first line, read-out: MIC",63 µg/mL
same,MIC,"K. pneumoniae [2]; Table 1, K. pneumoniae, second line, read-out: MIC",32 µg/mL
same,MIC,"Pr. mirabilis; Table 1, Pr. mirabilis",0.06 µg/mL
same,MIC,"Ser. marcescens; Table 1, Ser. marcescens",16 µg/mL
same,MIC,"Str. faecalis; Table 1, Str. faecalis",0.13 µg/mL
same,MIC,"S. marcescens; 1 strain (first line), read-out: MIC",63 µg/mL
same,MIC,S. marcescens; 1 strain (second line),> 125 µg/mL
same,MIC,E. cloacae,63 µg/mL
same,MIC,[4],0.07 µg/mL
same,MIC,"S. viridans; Table 4, S. viridans, 1 strain (second line)",0.063 µg/mL
same,MIC,"S. viridans; Table 4, S. viridans, 3 strains, geometric mean where applicable",0.05 µg/mL
same,MIC,"S. viridans; Table 4, s. viridans, 1 strain (third line)",0.35 µg/mL
same,MIC,"P. rettgeri; Table 4, P. retgeri, 2 strains (third line), geometric mean where applicable",32 µg/mL
same,MIC,"P. rettgeri; Table 4, P. rettgeri, 1 strain (first line)",0.13 µg/mL
same,MIC,"P. rettgeri; Table 4, P. rettgeri, 1 strain (second line)",4 µg/mL
same,MIC,E. Coli [5]; 1 strain (first line),0.5 µg/mL
same,MIC,E. Coli [5]; 1 strain (fourth line),> 125 µg/mL
same,MIC,E. Coli [5]; 1 strain (third line),63 µg/mL
same,MIC,"E. Coli [5]; 3 strains (second line), geometric mean where applicable",2.5 µg/mL
same,MIC,S. pneumoniae,0.02 µg/mL
same,MIC,[6],0.063 µg/mL
same,MIC,K. pneumoniae [7],> 125 µg/mL
same,MIC,"K. pneumoniae [7]; Table 4, K. pneumoniae, 1 strain (first line), read-out: MIC",32 µg/mL
same,MIC,P. mirabilis,> 125 µg/mL
same,MIC,"P. mirabilis; Table 4, P. mirabilis, 4 strains, geometric mean where applicable, read-out: MIC",2 µg/mL
same,MIC,S. faecalis,1 µg/mL
same,MIC,S. pyogenes,0.016 µg/mL
same,MIC,p. vulgaris,0.35 µg/mL
same,concentration at 0.25 h,[3],3500 ng/mL
same,concentration at 0.5 h,[3],6600 ng/mL
same,concentration at 1 h,[3],6800 ng/mL
same,concentration at 1.5 h,[3],4300 ng/mL
same,concentration at 2 h,[3],2500 ng/mL
same,concentration at 3 h,[3],1100 ng/mL
same,MIC,"Str. pyogenes; Table 1, Str. pyogenes",0.008 µg/mL
